According to patent US9527887B2 (priority 2011, dated 2016):
Like-named read-outs stand apart in the source and are kept apart here. Where a SMILES comes first, the peptide text is derived from it. Bridges are numbered along the chain shown (N, C = ends).

What was measured:
GC-C [1] = biological target: T1, GC-C (Homo sapiens, UniProt P25092); assay: biochemical; assay type: binding
GC-C [2] = biological target: T1, GC-C; assay: cell-based; settings: 30 min at 37° C., IBMX
[3] = after oral administration at therapeutic dose levels; cited from earlier work

T1 sequence (P25092 24-1073 limits assumed): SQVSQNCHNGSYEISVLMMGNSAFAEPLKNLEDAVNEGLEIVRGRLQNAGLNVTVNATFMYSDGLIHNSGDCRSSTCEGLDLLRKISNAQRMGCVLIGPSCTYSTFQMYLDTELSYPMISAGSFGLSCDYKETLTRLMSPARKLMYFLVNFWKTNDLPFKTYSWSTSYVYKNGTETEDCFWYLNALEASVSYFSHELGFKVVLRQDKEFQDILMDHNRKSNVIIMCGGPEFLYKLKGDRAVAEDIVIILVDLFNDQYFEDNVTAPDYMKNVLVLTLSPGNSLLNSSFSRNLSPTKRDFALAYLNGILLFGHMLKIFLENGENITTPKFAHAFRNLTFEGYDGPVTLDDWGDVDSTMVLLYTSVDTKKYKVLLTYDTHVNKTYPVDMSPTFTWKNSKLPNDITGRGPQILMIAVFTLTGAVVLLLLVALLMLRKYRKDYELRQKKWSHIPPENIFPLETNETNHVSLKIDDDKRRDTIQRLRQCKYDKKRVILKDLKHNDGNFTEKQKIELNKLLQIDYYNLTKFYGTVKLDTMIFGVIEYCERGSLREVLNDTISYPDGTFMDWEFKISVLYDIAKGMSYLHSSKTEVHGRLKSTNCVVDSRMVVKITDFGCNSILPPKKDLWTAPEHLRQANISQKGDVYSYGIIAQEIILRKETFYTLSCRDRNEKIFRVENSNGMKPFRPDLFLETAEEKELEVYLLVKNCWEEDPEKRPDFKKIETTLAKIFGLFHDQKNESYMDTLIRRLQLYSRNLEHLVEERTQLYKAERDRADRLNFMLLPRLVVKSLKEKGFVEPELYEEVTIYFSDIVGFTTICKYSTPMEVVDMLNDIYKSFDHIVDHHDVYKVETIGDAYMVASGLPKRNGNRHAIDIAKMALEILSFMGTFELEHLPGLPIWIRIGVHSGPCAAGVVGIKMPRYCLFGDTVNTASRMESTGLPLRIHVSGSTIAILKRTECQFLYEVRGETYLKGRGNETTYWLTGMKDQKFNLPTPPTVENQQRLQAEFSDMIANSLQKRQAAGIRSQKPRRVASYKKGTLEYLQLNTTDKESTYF

Structure (SMILES)	Ki (GC-C [1]; Binding affinity for GC-C Ki (nM) pH 5) [nM]	Ki (GC-C [1]; Binding affinity for GC-C Ki (nM) pH 8) [nM]	EC50 (GC-C [2]; pH 5 (DMEM+20 mM MES), read-out: cGMP response in T84 cells EC50 nM pH 5) [nM]	EC50 (GC-C [2]; pH 8 (DMEM+50 mM sodium bicarbonate), read-out: cGMP response in T84 cells EC50 nM pH 8) [nM]	levels of linaclotide seen systemically [3]
CC(C)C[C@@H]1NC(=O)[C@H](CCC(=O)O)NC(=O)[C@@H]2CSSC[C@@H]3NC(=O)[C@H](C)NC(=O)[C@@H]4CCCN4C(=O)[C@H](CC(N)=O)NC(=O)[C@H](CSSC[C@H](NC(=O)[C@H](CC(=O)O)NC(=O)[C@H](CC(=O)O)NC(=O)[C@@H](N)CC(=O)O)C(=O)N2)NC(=O)[C@H](CSSC[C@@H](C(=O)N[C@@H](Cc2ccc(O)cc2)C(=O)O)NC(=O)CNC(=O)[C@H]([C@@H](C)O)NC3=O)NC1=O [Peptide 17, DDDCCELCCNPACTGCY]	4.3	27.3	12.9	4980	–
C[C@@H]1NC(=O)[C@@H]2CCCN2C(=O)[C@H](CC(N)=O)NC(=O)[C@@H]2CSSC[C@H](N)C(=O)N[C@H]3CSSC[C@H](NC1=O)C(=O)N[C@@H]([C@@H](C)O)C(=O)NCC(=O)N[C@H](C(=O)N[C@@H](Cc1ccc(O)cc1)C(=O)O)CSSC[C@H](NC(=O)[C@H](Cc1ccc(O)cc1)NC(=O)[C@H](CCC(=O)O)NC3=O)C(=O)N2 [linaclotide, Linaclotide] (H-CCEYCCNPACTGCY-OH; disulfide 1-6, 2-10, 5-13)	–	–	–	–	no detectable levels
